In US11945793B1, “9-(2-hydroxypyridin-3-yl)-10[3-(dimethylamino)propyl]-3,4,6,7,9,10-hexahydroacridine-1,8(2H,5H)-dione as an antimicrobial compound” (KING FAISAL UNIVERSITY, priority 2023, dated 2024):

Tests used:
Assay type in all cases: cell-based
Details in all cases: after 10, 20, 40 and 60 minutes at all dilutions 1:100, 1:200, 1:400, 1:800
Staphylococcus aureus = assay: Antimicrobial screening by agar dilution, St. aureus
Method: (§1) The antibacterial properties of the synthesized compound 9-(2-hydroxypyridin-3-yl)-10-[3-(dimethylamino)propyl]-3,4,6,7,9,10-hexahydroacridine-1,8(2H,5H)-dione were studied by the method of agar dilution. Test solutions of each compound was prepared in concentration of 1% using dimethylformamide as a solvent then they are diluted in physiological solution to obtain the final experimental dilutions 1:100, 1:200, 1:400, 1:800. The effect of these substances are compared with furacillin in a controllable study. The testing microbes used were gram positive bacteria Staphylococcus aureus, gram negative bacteria Pseudomonas aeruginosa and Escherichia coli and Candida albicans fungus. The experiments used for this survey were meat-pentonlu agar (EPA) for cultivation of bacteria and Saburo environment for the fungus. Each experiment used 1 mL of test solution on each plate […]. Two drops of emulsified with microbes feel were added. All experimental samples were taken from the agar after 10, 20, 40, 60 minutes in the environment on the basis of Patrk planted. The bacteria were cultivated at a temperature of 37° C. for 1 day and the mushroom was kept in a thermostat for […] at a temperature of 28° C. Then results were checked.

Escherichia coli = assay: Antimicrobial screening by agar dilution, E. coli
Method: as §1

Pseudomonas aeruginosa = assay: Antimicrobial screening by agar dilution, Ps. aeruginosa
Method: as §1

Candida albicans = assay: Antimicrobial (antifungal) screening by agar dilution, Candida albicans
Method: as §1

Measured: inhibition activity (in words)

CN(C)CCCN1C2=C(C(=O)CCC2)C(c2cccnc2O)C2=C1CCCC2=O [9-(2-hydroxypyridin-3-yl)-10-[3-(dimethylamino)propyl]-3,4,6,7,9,10-hexahydroacridine-1,8(2H,5H)-dione]
highest inhibition activity: all assays above
